In US20250002514A1, “AMORPHOUS FORM OF BISMUTH-1,2-ETHANEDITHIOL AND METHODS OF MAKING” (Microbion Corporation, priority 2021, published 2025):
Where two headings read alike, the source gives them in different places.

Columns and labels:
[1] = tested on: Pseudomonas aeruginosa strain PA01; test: Bacterial killing curves with and without 10% cystic fibrosis patient sputum; format: cell-based
Protocol: Bacterial killing curves with BisEDT and BisBDT were performed in the presence of […] cystic fibrosis patient sputum in order to determine whether the test compounds are potentially inactivated by sputum. The assay is described in King P, Lomovskaya O, Griffith D C, Burns J L, Dudley M N. In vitro pharmacodynamics of levofloxacin and other aerosolized antibiotics under multiple conditions relevant to chronic pulmonary infection in cystic fibrosis. Antimicrob Agents Chemother, 54:143-8, 2010.
Sputum was collected from cystic fibrosis (CF) patient volunteers without recent antibiotic exposure after appropriate IRB approval. Sputum was sterilized by UV irradiation and sterilization was confirmed by culture. An overnight culture of Pseudomonas aeruginosa strain PA01 was used to inoculate fresh cultures in cation-adjusted Mueller-Hinton broth or cation-adjusted Mueller-Hinton broth plus 10% CF patient sputum. Drugs were added to individual culture tubes with and without sputum at the following final concentrations: • BisEDT: 0.1 μg/mL, 2 μg/mL, and 20 μg/mL • BisBDT: 0.1 μg/mL. 4 μg/mL, and 20 μg/mL
Tobramycin at 1 μg/mL was used as a comparator drug control known to be partially inactivated by patient sputum. Cultures were incubated with shaking at 37° C. and aliquots were removed every hour for quantitation of colony forming units per mL (CFU/mL) by serial dilution and plating on tryptic soy agar for a total of 6 hours. CFU were counted after incubation of the plates overnight at 37° C.

[2] = BisEDT single-dose rat PK studies comparing inhalation, IV and oral dosing; format: in vivo
Protocol: Based on existing in vivo and in vitro toxicology data as well as rat PK and in vitro MIC data, BisEDT suspension for inhalation can be reliably administered at doses providing efficacious lung levels that are tolerated, and it is therefore a viable clinical development candidate. […] 24 hours after single inhalation dose 4,093 ng/g was measured in the lung tissue (which equates to 123 μg/mL in lung fluid) and 4 days (96 hrs) after single dose 2,600 ng/g in lung tissue (which equates to 78 μg/mL in lung fluid). Without being bound by any particular theory, it is believed BisEDT's low solubility provides slow dissolution and long exposure on lung surface fluids with limited systemic exposure via diffusion through lung epithelium. The lung appears to act as a depot for slow systemic exposure with about 10× lower systemic levels than seen in the lung. The terminal phase of the IV data appears to show slow elimination after initial tissue distribution (FIG. 10).

[3] = Nose-only inhalation exposure in F344 rats: whole blood and lung BisEDT concentration (ICP-MS bismuth as surrogate); format: in vivo; settings: rat; for concentration at 8 h: nominal time 8 hr; for concentration at 12 h: nominal time 12 hr; for concentration at 24 h: nominal time 24 hr; for concentration at 30 h: nominal time 30 hr
Protocol: Inhalation Exposure: The initial exposure of BisEDT (Bismuth-1,2-ethanedithiol) was formulated as a solution at 100 mg/mL in suspension in 0.5% Tween 80, 10 mM sodium phosphate, pH 7.4, in NaCl (adjusted to approximately 300 mOsm). Aerosols were generated with a commercial compressed air jet nebulizer, Pad LC Plus, operated with an inlet pressure of 20 psi. The aerosols were transitioned into a rodent nose-only inhalation exposure system. The exposure system was operated with an inlet air flow of […] and an exhaust air flow of −5 L/min.
Detailed gross necropsies were performed on all animals (found dead, moribund, or scheduled necropsy) and consisted of a complete external and internal examination including body orifices and cranial, thoracic, and abdominal organs and tissues. All gross findings will be recorded in descriptive terms. […] Lungs collected and weighed.
Tables 6 and 7 below show whole blood BisEDT versus time data and lung BisEDT concentration at sacrifice time data respectively.

[4] = both sexes, F344, whole blood, inhaled, single inhalation dose 47 μg/kg, read-out: Whole blood Mean BisEDT Conc
[5] = both sexes, F344, whole blood, inhaled, single inhalation dose 124 μg/kg, read-out: Whole blood Mean BisEDT Conc
[6] = both sexes, F344, whole blood, inhaled, single inhalation dose 400 μg/kg, read-out: Whole blood Mean BisEDT Conc
[7] = both sexes, F344, whole blood, inhaled, single inhalation dose 3000 μg/kg, read-out: Whole blood Mean BisEDT Conc

In the case of C1C[S][Bi]([S]CC[S][Bi]2[S]CC[S]2)[S]1 [BisEDT, Bismuth-1,2-ethanedithiol], the “Bactericidal activity against PA01 at 0.1 μg/mL” value ([1]; 0.1 μg/mL, 6 hour assay) is reported as “not bactericidal”, the “Effect of CF patient sputum on bactericidal activity” value ([1]; 10% CF patient sputum in cation-adjusted Mueller-Hinton broth) is reported as “partially inhibited” and the “Bactericidal activity against Pseudomonas aeruginosa strain PA01 in this assay” value ([1]; overall conclusion of killing curves) is reported as “bactericidal”. The Tolerability ([2]; 100 μg/kg inhalation and IV and 250 μg/kg oral, single dose) was “tolerated”, the “Systemic levels lower than seen in the lung (fold)” value ([2]; after inhalation dosing) was “about 10 ×” and the “Duration of initial distribution into tissues after IV dosing (biphasic pattern)” value ([2]; single 100 μg/kg IV dose) was 18 h. For the same molecule, the “Half-life of lung levels after IV dosing” value ([2]; single 100 μg/kg IV dose) was “about 24 hour”, the “Lung levels after IV dosing vs inhalation group” value ([2]; single 100 μg/kg IV dose) was < 5% and the “Blood exposure after inhalation dosing” value ([2]; single 100 μg/kg inhalation dose) was “sustained, moderate, blood exposure with relatively stable concentrations across time”. For the same molecule, the “Blood concentrations after oral dosing” value ([2]; single 250 μg/kg oral dose) was “very low, but sustained and measurable”, the “Lung levels after oral dosing” value ([2]; single 250 μg/kg oral dose) was “no lung levels” and the “Half-life in lung tissue after inhalation dosing” value ([2]; single inhalation dose (100 μg/kg lung deposited)) was “about 4 days”. For the same molecule, the concentration at 8 h [3, 4] was 114 ng/mL, the concentration at 12 h [3, 4] was 98 ng/mL and the concentration at 24 h [3, 4] was 282 ng/mL. It also gave a concentration at 30 h [3, 4] of 373 ng/mL, a concentration at 8 h [3, 5] of 247 ng/mL and a concentration at 12 h [3, 5] of 187 ng/mL. The concentration at 24 h [3, 5] was 571 ng/mL, the concentration at 30 h [3, 5] was 668 ng/mL and the concentration at 8 h [3, 6] was 1700 ng/mL. For the same molecule, the concentration at 12 h [3, 6] was 1250 ng/mL, the concentration at 24 h [3, 6] was 2700 ng/mL and the concentration at 30 h [3, 6] was 2740 ng/mL. For the same molecule, the concentration at 1 h ([3]; both sexes, F344, whole blood, inhaled, single inhalation dose 3000 μg/kg, nominal time 1 hr, read-out: Whole blood Mean BisEDT Conc) was 485 ng/mL, the concentration at 2 h ([3]; both sexes, F344, whole blood, inhaled, single inhalation dose 3000 μg/kg, nominal time 2 hr, read-out: Whole blood Mean BisEDT Conc) was 2500 ng/mL and the concentration at 8 h [3, 7] was 6570 ng/mL. For the same molecule, the concentration at 24 h [3, 7] was 20500 ng/mL, the “Lung Mean BisEDT Conc at sacrifice” value ([3]; single inhalation dose 47 μg/kg, sac time 30 hr) was 4.8 ng/g and the “Lung Mean BisEDT Conc at sacrifice” value ([3]; single inhalation dose 124 μg/kg, sac time 30 hr) was 5.9 ng/g. For the same molecule, the “Lung Mean BisEDT Conc at sacrifice” value ([3]; single inhalation dose 400 μg/kg, sac time 30 hr) was 12.1 ng/g and the “Lung Mean BisEDT Conc at sacrifice” value ([3]; single inhalation dose 3000 μg/kg, sac time 24 hr) was 82.3 ng/g.

With NC[C@H]1O[C@H](O[C@H]2[C@H](O)[C@@H](O[C@H]3O[C@H](CO)[C@@H](O)[C@H](N)[C@H]3O)[C@H](N)C[C@@H]2N)[C@H](N)C[C@@H]1O [tobramycin, reference compound] the “CFU higher in cultures with sputum compared to cultures without sputum” value ([1]; tobramycin 1 μg/mL, 10% CF patient sputum, most time points) was 0.5-1 log CFU/mL.
